Molecular target: T1, NaV1.3 (Rattus norvegicus, UniProt P08104)
T1 construct: gene Scn3a
Experiment: manual whole-cell patch-clamp of endogenous INa in GH3b6 cells
Format: cell-based
Conditions: read-out: % reduction of INa amplitude at 1 μM

T1 sequence (P08104 whole entry): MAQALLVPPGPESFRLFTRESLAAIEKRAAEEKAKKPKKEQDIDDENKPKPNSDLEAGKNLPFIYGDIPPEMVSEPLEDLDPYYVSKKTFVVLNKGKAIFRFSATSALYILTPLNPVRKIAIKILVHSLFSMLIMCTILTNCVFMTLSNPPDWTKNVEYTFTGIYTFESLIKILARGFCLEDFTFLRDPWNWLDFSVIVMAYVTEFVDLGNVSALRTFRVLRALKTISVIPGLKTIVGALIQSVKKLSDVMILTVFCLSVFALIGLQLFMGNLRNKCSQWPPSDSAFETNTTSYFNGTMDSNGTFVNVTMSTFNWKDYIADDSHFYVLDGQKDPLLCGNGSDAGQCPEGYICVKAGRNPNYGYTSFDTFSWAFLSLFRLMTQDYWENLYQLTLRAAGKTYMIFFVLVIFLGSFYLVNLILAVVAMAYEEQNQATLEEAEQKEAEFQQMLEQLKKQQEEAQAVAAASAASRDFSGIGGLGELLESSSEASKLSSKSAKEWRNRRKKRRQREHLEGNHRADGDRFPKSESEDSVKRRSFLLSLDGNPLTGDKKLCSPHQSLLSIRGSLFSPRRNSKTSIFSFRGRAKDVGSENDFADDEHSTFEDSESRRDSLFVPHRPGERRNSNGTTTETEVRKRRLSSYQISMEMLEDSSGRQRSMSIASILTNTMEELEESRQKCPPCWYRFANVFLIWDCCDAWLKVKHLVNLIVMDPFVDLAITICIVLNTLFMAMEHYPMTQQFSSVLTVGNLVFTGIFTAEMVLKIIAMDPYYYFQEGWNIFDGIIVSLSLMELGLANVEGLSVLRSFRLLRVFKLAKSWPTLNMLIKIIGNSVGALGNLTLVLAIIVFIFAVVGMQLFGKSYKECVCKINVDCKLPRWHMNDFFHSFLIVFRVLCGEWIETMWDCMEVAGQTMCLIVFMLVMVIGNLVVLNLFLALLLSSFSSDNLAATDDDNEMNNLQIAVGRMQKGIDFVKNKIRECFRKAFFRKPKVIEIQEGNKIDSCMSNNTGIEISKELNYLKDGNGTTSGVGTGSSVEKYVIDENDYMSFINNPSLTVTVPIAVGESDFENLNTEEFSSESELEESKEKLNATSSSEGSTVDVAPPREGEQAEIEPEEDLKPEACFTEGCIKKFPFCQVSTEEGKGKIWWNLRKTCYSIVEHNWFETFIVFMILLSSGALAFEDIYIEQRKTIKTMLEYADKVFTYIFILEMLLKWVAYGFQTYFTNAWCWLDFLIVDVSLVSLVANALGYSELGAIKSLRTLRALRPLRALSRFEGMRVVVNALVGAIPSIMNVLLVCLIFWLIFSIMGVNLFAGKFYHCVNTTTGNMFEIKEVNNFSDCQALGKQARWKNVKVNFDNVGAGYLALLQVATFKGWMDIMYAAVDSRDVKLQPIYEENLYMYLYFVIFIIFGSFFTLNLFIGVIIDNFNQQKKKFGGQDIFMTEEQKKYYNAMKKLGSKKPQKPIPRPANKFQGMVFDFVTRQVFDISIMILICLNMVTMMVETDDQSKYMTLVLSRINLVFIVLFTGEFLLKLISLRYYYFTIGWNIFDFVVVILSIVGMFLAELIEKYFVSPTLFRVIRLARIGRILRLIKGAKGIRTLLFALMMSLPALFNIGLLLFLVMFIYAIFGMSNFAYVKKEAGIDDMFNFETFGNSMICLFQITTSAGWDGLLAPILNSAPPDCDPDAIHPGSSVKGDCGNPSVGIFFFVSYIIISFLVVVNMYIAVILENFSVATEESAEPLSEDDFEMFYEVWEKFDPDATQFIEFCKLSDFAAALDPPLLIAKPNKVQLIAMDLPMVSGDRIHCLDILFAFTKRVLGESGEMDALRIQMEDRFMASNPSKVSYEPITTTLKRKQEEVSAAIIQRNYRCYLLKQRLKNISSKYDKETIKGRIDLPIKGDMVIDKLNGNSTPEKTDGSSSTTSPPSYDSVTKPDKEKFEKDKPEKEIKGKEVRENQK

O=C(Nc1ccc(S(=O)(=O)Nc2nccs2)cc1)C(c1ccccc1)c1ccccc1 [ICA-121431]
inhibition at 1 µM: 50%

Reference: publication PMC8775721, “Pharmacological Dissection of the Crosstalk between NaV and CaV Channels in GH3b6 Cells” (International Journal of Molecular Sciences, 2022)
